The target in this assay is T1, GlyT1 (Homo sapiens, UniProt P48067).
T1 construct: expressed in transfected cells
T1 sequence (P48067 1-706): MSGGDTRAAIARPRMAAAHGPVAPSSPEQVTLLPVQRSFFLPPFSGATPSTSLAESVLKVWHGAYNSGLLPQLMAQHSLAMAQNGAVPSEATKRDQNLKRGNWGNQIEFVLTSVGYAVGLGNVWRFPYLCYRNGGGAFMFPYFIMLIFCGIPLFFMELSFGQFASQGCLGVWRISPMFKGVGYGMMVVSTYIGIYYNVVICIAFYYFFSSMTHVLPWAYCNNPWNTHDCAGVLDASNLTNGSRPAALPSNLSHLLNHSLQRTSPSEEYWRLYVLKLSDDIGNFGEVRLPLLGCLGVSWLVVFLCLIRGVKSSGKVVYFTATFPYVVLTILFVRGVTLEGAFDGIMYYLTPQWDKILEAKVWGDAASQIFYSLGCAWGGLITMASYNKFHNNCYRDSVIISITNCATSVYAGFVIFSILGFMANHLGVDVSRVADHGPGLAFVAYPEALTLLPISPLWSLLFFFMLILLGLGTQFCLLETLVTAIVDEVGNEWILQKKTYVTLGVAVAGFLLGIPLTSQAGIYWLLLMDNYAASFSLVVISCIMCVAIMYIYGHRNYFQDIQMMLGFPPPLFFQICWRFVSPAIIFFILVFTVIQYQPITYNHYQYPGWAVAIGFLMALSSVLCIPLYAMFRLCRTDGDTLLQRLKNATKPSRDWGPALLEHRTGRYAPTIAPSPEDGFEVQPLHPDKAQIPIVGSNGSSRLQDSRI
Briefly: Glycine Transporter 1 (GlyT1) uptake assay, scintillation proximity assay of [14C]-glycine uptake. The class given is cell-based. The settings on record: SPA, four parameter logistic fit, read-out: GlyT1 (pIC50) (converted). Summed up:
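[14C]-glycine uptake read by scintillation proximity on a plate counter. IC50 from four-parameter logistic fit of dose-response data.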
For orientation: In a scintillation proximity assay essentially only radioactivity close to the scintillant gives light.
As for `COc1c(C#N)ccc(O[C@@H](C)C(F)(F)F)c1C(=O)N1Cc2cn(-c3ncc(F)cc3C)nc2C1` [Example 298, 3-[2-(5-Fluoro-3-methylpyridin-2-yl)-2H 4H 5H 6H-pyrrolo[3,4-c]pyrazole-5-carbonyl]-2-methoxy-4-{[(2 S)-1 1 1-trifluoropropan-2-yl]oxy}benzonitrile], the IC50 was < 100 nM.
Consider `N#Cc1ccc(OCC(F)(F)F)c(C(=O)N2CCc3nn(-c4ccc(F)cn4)cc3C2)c1Cl` [Example 224, 2-Chloro-3-[2-(5-fluoropyridin-2-yl)-2H 4H 5H 6H 7H-pyrazolo[4,3-c]pyridine-5-carbonyl]-4-(2 2 2-trifluoroethoxy)benzonitrile], for which the IC50 is 1000 to 10000 nM.
The figure for `C[C@H](Oc1ccc(S(C)(=O)=O)cc1C(=O)N1Cc2cn(-c3cccc(C(F)(F)F)c3)nc2C1)C(F)(F)F` [Example 44, 5-(5-Methanesulfonyl-2-{[(2S)-1 1 1-trifluoropropan-2-yl]oxy}benzoyl)-2-[3-(trifluoromethyl)phenyl]-2H 4H 5H 6H-pyrrolo[3,4-c]pyrazole] is < 100 nM; for `CCS(=O)(=O)c1ccc(OC(C)C)c(C(=O)N2Cc3cn(-c4ccc(F)cc4)nc3C2)c1` [Example 84, 5-[5-(Ethanesulfonyl)-2-(propan-2-yloxy)benzoyl]-2-(4-fluorophenyl)-2H 4H 5H 6H-pyrrolo[3,4-c]pyrazole] it is < 100 nM; for `C[C@H](Oc1ccc(C#N)cc1C(=O)N1Cc2cn(-c3ccccc3F)nc2C1)C(F)(F)F` [Example 397, 3-[2-(2-Fluorophenyl)-2H 4H 5H 6H-pyrrolo[3,4-c]pyrazole-5-carbonyl]-4-{[(2S)-1 1 1-trifluoropropan-2-yl]oxy}benzonitrile] it is < 100 nM.
The same measure for `Cc1cc(-n2cc3c(n2)CN(C(=O)c2cc(S(C)(=O)=O)ccc2O[C@@H](C)C(F)(F)F)C3)ccn1` [Example 356, 4-[5-(5-Methanesulfonyl-2-{[(2S)-1 1 1-trifluoropropan-2-yl]oxy}benzoyl)-2H 4H 5H 6H-pyrrolo[3,4-c]pyrazol-2-yl]-2-methylpyridine]: < 100 nM.
The same measure for `C[C@H](Oc1ccc(C#N)cc1C(=O)N1Cc2cn(-c3ccc(F)cn3)nc2C1)C(F)(F)F` [Example 342, 3-[2-(5-Fluoropyridin-2-yl)-2H 4H 5H 6H-pyrrolo[3,4-c]pyrazole-5-carbonyl]-4-{[(2S)-1 1 1-trifluoropropan-2-yl]oxy}benzonitrile]: 100 to 1000 nM; for `CC(C)(C)COc1ccc(C#N)c(Cl)c1C(=O)N1CCc2nn(-c3ccccc3)cc2C1` [Example 503, 2-Chloro-4-(2 2-dimethylpropoxy)-3-{2-phenyl-2H 4H 5H 6H 7H-pyrazolo[4,3-c]pyridine-5-carbonyl}benzonitrile]: 100 to 1000 nM; for `[2H]C1(c2ccc(C#N)cc2C(=O)N2CCc3nn(-c4ccccc4)cc3C2)CCCC1` [Example 173, 4-[(1-^2H)Cyclopentyl]-3-{2-phenyl-2H 4H 5H 6H 7H-pyrazolo[4,3-c]pyridine-5-carbonyl}benzonitrile]: 100 to 1000 nM.
On to `Cc1cccc(-n2cc3c(n2)CN(C(=O)c2cc(S(C)(=O)=O)ccc2OCC2CC2)C3)c1` [Example 140, 5-[2-(Cyclopropylmethoxy)-5-methanesulfonylbenzoyl]-2-(3-methylphenyl)-2H 4H 5H 6H-pyrrolo[3,4-c]pyrazole], for which the IC50 is < 100 nM.
The figure for `COc1ncc(-n2ncc3c2CN(C(=O)c2c(O[C@@H](C)C(F)(F)F)ccc(C#N)c2OC)C3)cc1F` [Example 315, 3-[1-(5-Fluoro-6-methoxypyridin-3-yl)-1H 4H 5H 6H-pyrrolo[3,4-c]pyrazole-5-carbonyl]-2-methoxy-4-{[(2 S)-1 1 1-trifluoropropan-2-yl]oxy}benzonitrile] is 100 to 1000 nM; for `COc1c(C#N)ccc(O[C@@H](C)C(F)(F)F)c1C(=O)N1Cc2cn(-c3ccccn3)nc2C1` [Example 263, 2-Methoxy-3-[2-(pyridin-2-yl)-2H 4H 5H 6H-pyrrolo[3,4-c]pyrazole-5-carbonyl]-4-{[(2S)-1 1 1-trifluoropropan-2-yl]oxy}benzonitrile] it is < 100 nM; for `CCS(=O)(=O)c1ccc(OC(C)C)c(C(=O)N2Cc3cn(-c4cccc(C)c4)nc3C2)c1` [Example 83, 5-[5-(Ethanesulfonyl)-2-(propan-2-yloxy)benzoyl]-2-(3-methylphenyl)-2H 4H 5H 6H-pyrrolo[3,4-c]pyrazole] it is < 100 nM.
In the case of `COc1c(C#N)ccc(C2CCC2)c1C(=O)N1CCc2nn(-c3ccccc3)cc2C1` [Example 488, 4-Cyclobutyl-2-methoxy-3-{2-phenyl-2H 4H 5H 6H 7H-pyrazolo[4,3-c]pyridine-5-carbonyl}benzonitrile], the IC50 is 100 to 1000 nM.
The same measure for `COc1c(C#N)ccc(O[C@@H](C)C(F)(F)F)c1C(=O)N1Cc2cn(-c3c(C)nn(C)c3C)nc2C1` [Example 306, 2-Methoxy-4-{[(2S)-1 1 1-trifluoropropan-2-yl]oxy}-3-[2-(trimethyl-1H-pyrazol-4-yl)-2H 4H 5H 6H-pyrrolo[3,4-c]pyrazole-5-carbonyl]benzonitrile]: 100 to 1000 nM; for `CS(=O)(=O)c1ccc(N2CCC(F)(F)C2)c(C(=O)N2CCc3nn(-c4ccccc4)cc3C2)c1` [Example 496, 3 3-Difluoro-1-(4-methanesulfonyl-2-{2-phenyl-2H 4H 5H 6H 7H-pyrazolo[4,3-c]pyridine-5-carbonyl}phenyl)pyrrolidine]: 100 to 1000 nM; for `C[C@H](Oc1ccc(C#N)cc1C(=O)N1Cc2cn(-c3ccnc(C4CC4)c3)nc2C1)C(F)(F)F` [Example 404, 3-[2-(2-Cyclopropylpyridin-4-yl)-2H 4H 5H 6H-pyrrolo[3,4-c]pyrazole-5-carbonyl]-4-{[(2S)-1 1 1-trifluoropropan-2-yl]oxy}benzonitrile]: < 100 nM.
In the case of `COc1c(C#N)ccc(OCC(F)(F)F)c1C(=O)N1Cc2cn(-c3ccc(F)cn3)nc2C1` [Example 260, 3-[2-(5-Fluoropyridin-2-yl)-2H 4H 5H 6H-pyrrolo[3,4-c]pyrazole-5-carbonyl]-2-methoxy-4-(2 2 2-trifluoroethoxy)benzonitrile], the IC50 was 100 to 1000 nM.
On to `COc1c(C#N)ccc(O[C@@H](C)C(F)(F)F)c1C(=O)N1Cc2cn(-c3ccccc3)nc2C1` [Example 322], for which the IC50 is < 100 nM.
The figure for `COc1c(C#N)ccc(O[C@@H](C)C(F)(F)F)c1C(=O)N1Cc2cn(-c3cc(C)ccn3)nc2C1` [Example 274, 2-Methoxy-3-[2-(4-methylpyridin-2-yl)-2H 4H 5H 6H-pyrrolo[3,4-c]pyrazole-5-carbonyl]-4-{[(2S)-1 1 1-trifluoropropan-2-yl]oxy}benzonitrile] is < 100 nM.
The same measure for `CC(C)Oc1ccc(S(C)(=O)=O)cc1C(=O)N1Cc2cn(-c3ccc(F)c(F)c3)nc2C1` [Example 2, (2-(3,4-Difluorophenyl)pyrrolo[3,4-c]pyrazol-5(2H,4H,6H)-yl)(2-isopropoxy-5-(methylsulfonyl)phenyl)methanone]: < 100 nM.
The figure for `COc1c(C(N)=O)ccc(OC(C)C(F)(F)F)c1C(=O)N1CCc2nn(-c3ccc(F)cc3)cc2C1` (stereo not drawn) [Example 483, 3-[2-(4-Fluorophenyl)-2H 4H 5H 6H 7H-pyrazolo[4,3-c]pyridine-5-carbonyl]-2-methoxy-4-[(1 1 1-trifluoropropan-2-yl)oxy]benzamide] is 1000 to 10000 nM.
For `COc1c(C#N)ccc(OC(C)C(F)(F)F)c1C(=O)N1Cc2cnn(-c3ccc(F)cc3)c2C(C)(C)C1` (stereo not drawn) [Example 474, 3-[1-(4-Fluorophenyl)-7 7-dimethyl-1H 4H 5H 6H 7H-pyrazolo[4,3-c]pyridine-5-carbonyl]-2-methoxy-4-[(1 1 1-trifluoropropan-2-yl)oxy]benzonitrile], the IC50 was 1000 to 10000 nM.
The same measure for `C[C@H](Oc1ccc(C#N)c(Cl)c1C(=O)N1CCc2nn(-c3ccncc3F)cc2C1)C(F)(F)F` [Example 244, 2-Chloro-3-[2-(3-fluoropyridin-4-yl)-2H 4H 5H 6H 7H-pyrazolo[4,3-c]pyridine-5-carbonyl]-4-{[(2S)-1 1 1-trifluoropropan-2-yl]oxy}benzonitrile]: < 100 nM; for `C[C@H](Oc1ccc(C#N)c(Cl)c1C(=O)N1CCc2nn(-c3ccc(F)cn3)cc2C1)C(F)(F)F` [Example 222, 2-Chloro-3-[2-(5-fluoropyridin-2-yl)-2H 4H 5H 6H 7H-pyrazolo[4,3-c]pyridine-5-carbonyl]-4-{[(2S)-1 1 1-trifluoropropan-2-yl]oxy}benzonitrile]: 100 to 1000 nM.
The figure for `Cc1c(F)ccc(-n2cc3c(n2)CN(C(=O)c2cc(S(C)(=O)=O)ccc2O[C@@H](C)C(F)(F)F)C3)c1F` [Example 58, 2-(2 4-Difluoro-3-methylphenyl)-5-(5-methanesulfonyl-2-{[(2S)-1 1 1-trifluoropropan-2-yl]oxy}benzoyl)-2H 4H 5H 6H-pyrrolo[3,4-c]pyrazole] is < 100 nM; for `C[C@H](Oc1ccc(S(C)(=O)=O)cc1C(=O)N1Cc2cn(C3CCC(F)(F)CC3)nc2C1)C(F)(F)F` [Example 471, 2-(4 4-Difluorocyclohexyl)-5-(5-methanesulfonyl-2-{[(2S)-1 1 1-trifluoropropan-2-yl]oxy}benzoyl)-2H 4H 5H 6H-pyrrolo[3,4-c]pyrazole] it is < 100 nM.

Values taken from patent US9708334B2, “Substituted 2,4,5,6-tetrahydropyrrolo[3,4-c]pyrazole and 4,5,6,7-tetrahydro-2H-pyrazolo[4,3-c]pyridine compounds as GlyT1 inhibitors” (DART NEUROSCIENCE (CAYMAN) LTD., priority 2014, dated 2017).
